Assay results: patent US20060063794A1, “Method of attenuating graft rejection” (Fujisawa Pharmaceutical Co., Ltd., priority 2004, published 2006)

Key:
[1] = tested on: human kidney transplant recipients; assay: Multi-center, randomized, double-blind trial of FK778/Tacrolimus/steroids: acute rejection and graft survival; assay type: in vivo
Method: Patients were randomised to a 3-month treatment regimen with high-level FK778/Tacrolimus/corticosteroid (arm 1), low-level FK778/Tacrolimus/corticosteroid (arm 2), or placebo/Tacrolimus/corticosteroid (arm 3). FK778 and placebo were administered in a double-blind manner. Patients in arm 1 received two doses of 600 mg/day and continued on 150 mg/day. Patients in arm 2 received one dose of 600 mg/day and continued on 75 mg/day. Subsequent doses were adjusted to maintain trough levels of FK778 in the range of 100-200 μg/mL (arm 1) and 10-100 μg/mL (arm 2). Trough levels of FK778 were centrally determined. Doses of FK778 were adjusted according to the recommendations of an independent panel.
Treatment of adults of both genders was studied in a multi-center, randomized, double-blind trial. Three groups were studied. Group H was treated with high dose FK778/tarcolimus/steroids; Group L was treated with low dose FK778/tarcolimus/steroids; and Group P was treated with placebo/Tacrolimus/steroids. Tacrolimus was given as an initial dose of 0.2 mg/kg per os divided into two equal doses, one pre-operatively and one post-operatively. Subsequent doses were adjusted to reach target Tacrolimus whole blood trough concentrations of 10-20 ng/mL on Days 0-30, and 5-15 ng/mL on Days 31-84. Methylprednisolone was perioperatively administered at 1000 mg i.v. or less and 125 mg on Day 1. A prednisolone equivalent was given orally at 20 mg from Day 2-14, at 15 mg on Day 15-28, at 10 mg from Day 29-42 and 5 mg from Day 43-84. Oral tablets of FK778/placebo were administered in a double-blind manner.
Patients in group H received loading doses of 600 mg/day on Day 1 and 2 and continued on 150 mg/day. This was the maximum permitted daily dose of FK778. Patients in group L received 600 mg/day only on Day 1 and continued on 75 mg/day. Dose adaptations were to be performed from day 7 onwards. Subsequent doses were adjusted to maintain plasma trough levels of FK778 in the target ranges of 100-200 μg/mL (H) and 10-100 μg/mL (L).
All visits and time points were calculated from the day of reperfusion (Day 0). […] Periods of dialysis dependence and hospitalization were recorded, as were details of medication. In case of a clinically apparent rejection, a renal graft biopsy was taken and classified by the local histopathologist according to the Banff 97 criteria (Racusen et al., Kidney Int. 55: 713-723 (1999)). Type I, II and III acute rejections (AR) were reported. AR was classified as corticosteroid-sensitive or corticosteroid-resistant. An independent histopathologist who was blinded to treatment and local biopsy readings performed the central biopsy review.
The primary efficacy endpoint was the incidence of AR proven by local biopsy over the first 12 weeks. […] For being defined as a patient whose target level was achieved, the average trough level of this patient had to be within the target range at week 2. On a continuous basis safety was assessed by patient and graft survival, adverse event monitoring, routine laboratory evaluations and vital signs. Treatment emergent adverse events were coded according to the MedDRA dictionary (version 5.0).
In this example, all tests were performed one-sided and pair-wise without alpha-adjustment for multiple testing using a 10% significance level. Statistical power was calculated for the analysis of the primary endpoint. A difference of 20% between groups in the incidence of biopsy-proven AR was considered a clinically meaningful difference. A reasonable expectation for the estimated rate of patients experiencing biopsy-proven AR in the Tacrolimus/steroid arm was 35%. Allowing for a dropout rate of 11%, it was estimated that with the outlined statistical methods the sample size of 45 evaluable patients per treatment arm was large enough to achieve a power of ≧80%. Thus, it was planned to enroll 135 patients using a 1:1:1 randomisation. The primary endpoint was analysed using chi-squared tests. […]

CMV = conditions: animal models; cited from earlier work
[2] = All patients, High level FK778 (group H)
[3] = All patients, Low level FK778 (group L)

C#CCC/C(O)=C(\C#N)C(=O)Nc1ccc(C(F)(F)F)cc1 [FK778, (2Z)-2-cyano-3-hydroxy-N-[4-(trifluromethyl)phenyl]-2-hepten-6-ynamide]
Corticosteroid-resistant AR (%) [1, 2]: (8.2) % | Corticosteroid-resistant AR, number of patients [1, 2]: 4 | Corticosteroid-sensitive AR (%) [1, 2]: (22.4) % | Corticosteroid-sensitive AR, number of patients [1, 2]: 11 | Overall AR proven by central biopsy, number of patients ([1]; All patients, High level FK778 (group H), N=49): 13 | Overall AR proven by local biopsy, number of patients ([1]; All patients, High level FK778 (group H), N=49, first 12 weeks): 14 | Corticosteroid-resistant AR (%) [1, 3]: (11.1) % | Corticosteroid-resistant AR, number of patients [1, 3]: 6 | Corticosteroid-sensitive AR (%) [1, 3]: (14.8) % | Corticosteroid-sensitive AR, number of patients [1, 3]: 8 | Overall AR proven by central biopsy, number of patients ([1]; All patients, Low level FK778 (group L), N=54): 14 | Overall AR proven by local biopsy, number of patients ([1]; All patients, Low level FK778 (group L), N=54, first 12 weeks): 14 | Overall AR proven by central biopsy, number of patients ([1]; Patients reaching target levels within second week, High level FK778 (subgroup H), N=26): 2 | Overall AR proven by central biopsy, number of patients ([1]; Patients reaching target levels within second week, Low level FK778 (subgroup L), N=48): 13 | Kaplan-Meier estimated rate of patients free from centrally determined biopsy proven acute rejection, higher compared with placebo ([1]; after 12 weeks, high and low level FK778): 12.1 % percentage points | Graft survival at month 4 ([1]; arm 1, high-level FK778/Tacrolimus/corticosteroid, n=49): 89.7% | Graft survival at month 4 ([1]; arm 2, low-level FK778/Tacrolimus/corticosteroid, n=54): 88.8% | Difference in incidence of AR by central biopsy review versus placebo ([1]; group H vs. P): 12.6% | Difference in incidence of AR proven by local biopsy versus placebo ([1]; group H vs. P): 6.2% | Graft survival estimate (Kaplan-Meier method) at Week 16 ([1]; group H, high level FK778): 89.7% | Difference in incidence of AR by central biopsy review versus placebo ([1]; group L vs. P): 13.2% | Difference in incidence of AR proven by local biopsy versus placebo ([1]; group L vs. P): 8.9% | Graft survival estimate (Kaplan-Meier method) at Week 16 ([1]; group L, low level FK778): 88.8% | Effect on CMV disease (CMV): attenuates CMV disease
